Data set [1] in a line: Plasma pharmacokinetics of cocktail index drugs and their metabolites, five-phase crossover trial.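 On all read-outs here: parameters derived from plasma drug levels quantified by LC–MS with internal standards after acetonitrile protein precipitation.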 Conditions: for AUC(0-t) / AUC(0-inf) / Cmax / Tmax / half-life: human, plasma, oral; for AUC(0-t) / AUC(0-inf) / Cmax: geometric mean (geometric CV); for AUC(0-inf): AUC0-∞; for Tmax: median (range); for half-life: t1/2, geometric mean (geometric CV).
Protocol: (§1) This open‐label cross‐over clinical trial included five study phases that each participant underwent in a randomized order (Table 1 ). There was at least 2‐week washout period between different study days.
(§2) On study days, venous blood samples from all participants were drawn from forearm vein cannulas before the administration of the pretreatment drugs and 5 minutes before and 0.5, 1, 1.5, 2, 3, 4, 6, 8, 12, and 23 hours after the administration of the index drugs for determination of index drug and metabolite concentrations. […] Standardized breakfast was served 1 hour, lunch 3 hours, and snacks 7 and 9 hours after the administration of index drugs.
(§3) Prior to the analysis, the analytes were extracted from the plasma samples with simple protein precipitation. Plasma samples (50 μL) were mixed with acetonitrile solution (200 μL) containing internal standards. The samples were centrifugated and an aliquot of the supernatant was mixed with an equal volume of water before LC–MS analyses.
(§4) The flow rate was 0.3 mL/min, and the gradient program for the mobile phase B was from 20% to 90% over 7 minutes, wash at 90% 7–9.5 minutes, followed by balancing at 20% before next injection. […] The column and mobile phases were the same as above, and the gradient program for the mobile phase B was from 40% to 90% over 5 minutes, wash at 90% 5–7.3 minutes, followed by balancing at 40% before next injection. The quality control samples for each analyte at relevant concentrations were quantified with each batch of plasma samples.
(§5) Individuals with poor metabolism or transport function phenotype were excluded from respective statistical comparisons.
A further data set can be described thus: clinical. The note with it: human, in vivo; for AUC(0-t): AUC0-23h; for AUC(0-t) / AUC(0-inf) / Cmax: geometric mean (geometric CV); for AUC(0-inf): AUC0-∞; for Tmax: median (range); for half-life: t1/2, geometric mean (geometric CV).
Setting [2] is: phase IV: clopidogrel 300 mg pretreatment + full cocktail.
Where [3] appears, read: phase V: gemfibrozil 600 mg b.i.d. 3 days pretreatment + full cocktail.

Protocol for clinical: as §1, §2, §3, §4, §5

Consider `COc1ccc2nc([S+]([O-])Cc3ncc(CO)c(OC)c3C)[nH]c2c1` (stereo not drawn) [5’-OH-omeprazole, 5′‐hydroxyomeprazole], for which, in data set [1] (phase II: Geneva cocktail), the “AUC0-23h, geometric mean (geometric CV)” value is 194 (35.7%) ng×h/mL; the “AUC0-∞, geometric mean (geometric CV)” value is 193 (36.1%) ng×h/mL; the “Cmax, geometric mean (geometric CV)” value is 99.8 (87.9%) ng/mL; the “Tmax, median (range)” value is 1.5 (1.0-2.0) h. In data set [1] (phase II: Geneva cocktail), the “t1/2, geometric mean (geometric CV)” value was 1.17 (36.9%) h. Besides, in data set [1] (setting [2]), the “AUC0-23h, geometric mean (geometric CV)” value is 213 (14.6%) ng×h/mL; the “AUC0-∞, geometric mean (geometric CV)” value is listed as 212 (14.5%) ng×h/mL; the “Cmax, geometric mean (geometric CV)” value is recorded as 115 (23.8%) ng/mL; the “Tmax, median (range)” value is 1.5 (1.0-3.0) h. Also, the “t1/2, geometric mean (geometric CV)” value in data set [1] (setting [2]) is 1.04 (15.5%) h. In data set [1] (setting [3]), the “AUC0-23h, geometric mean (geometric CV)” value is 253 (37.6%) ng×h/mL; the “AUC0-∞, geometric mean (geometric CV)” value is given as 253 (36.9%) ng×h/mL; the “Cmax, geometric mean (geometric CV)” value is given as 104 (76.9%) ng/mL; the “Tmax, median (range)” value is listed as 1.5 (1.0-4.0) h. Besides, the “t1/2, geometric mean (geometric CV)” value in data set [1] (setting [3]) is reported as 1.34 (32.6%) h.

As to `Cn1c(=O)[nH]c2ncn(C)c2c1=O` [Paraxanthine, paraxanthine], the AUC(0-t) is 3370 ng·h/mL in data set [1] (AUC0-12h, phase II: Geneva cocktail); 3940 ng·h/mL in data set [1] (AUC0-12h, phase IV: clopidogrel 300 mg pretreatment + full cocktail); 3360 ng·h/mL in data set [1] (AUC0-12h, phase V: gemfibrozil 600 mg b.i.d. 3 days pretreatment + full cocktail). The AUC(0-inf) amounted to 7220 ng·h/mL in data set [1] (phase II: Geneva cocktail), 8930 ng·h/mL in data set [1] (setting [2]) and 9160 ng·h/mL in data set [1] (setting [3]). Besides, the figures for the Cmax in data set [1] (phase II: Geneva cocktail), in data set [1] (setting [2]) and in data set [1] (setting [3]) were 374 ng/mL, 436 ng/mL and 358 ng/mL, respectively. The time to peak (Tmax) in data set [1] (phase II: Geneva cocktail) stood at 4 h; in data set [1] (setting [2]) it was 3 h. Moreover, the results for the half-life in data set [1] (phase II: Geneva cocktail), in data set [1] (setting [2]) and in data set [1] (setting [3]) were 11 h, 12.8 h and 15.9 h, respectively.

Take `CN1CC[C@@]23CCCC[C@@H]2[C@@H]1Cc1ccc(O)cc13` [Dextrorphan, dextrorphan]: in the data set “clinical” (phase II: Geneva cocktail), the AUC(0-t) stood at 8.07 ng·h/mL, the AUC(0-inf) stood at 8.35 ng·h/mL, the peak level (Cmax) was 1.82 ng/mL and the Tmax is 2 h. For the same compound, the half-life in “clinical” (phase II: Geneva cocktail) is 2.5 h. Moreover, in “clinical” (setting [2]), the area under the curve AUC(0-t) came to 9.66 ng·h/mL, the area under the curve AUC(0-inf) came to 10 ng·h/mL, the highest concentration (Cmax) stood at 2.05 ng/mL and the time of peak concentration (Tmax) is 2 h. In addition, in “clinical” (setting [2]), the half-life was 2.68 h. In addition, in “clinical” (setting [3]), the area under the curve AUC(0-t) came to 17.8 ng·h/mL, the total exposure AUC(0-inf) stood at 17.8 ng·h/mL, the Cmax was 3.63 ng/mL and the time to peak (Tmax) worked out at 2 h. For the same compound, in “clinical” (setting [3]), the half-life was 2.77 h.

As for `Cc1ncc2n1-c1ccc(Cl)cc1C(c1ccccc1F)=NC2` [Midazolam, midazolam], in the data set “clinical” (phase II: Geneva cocktail), the exposure AUC(0-t) amounted to 9.89 ng·h/mL, the AUC(0-inf) was 9.82 ng·h/mL and the half-life is 2.29 h. Besides, in “clinical” (setting [2]), the AUC(0-t) was found to be 11.3 ng·h/mL, the total exposure AUC(0-inf) worked out at 11.2 ng·h/mL, the Cmax worked out at 4.33 ng/mL and the half-life is 2.4 h. In the data set “clinical” (setting [3]), the AUC(0-t) was 8.06 ng·h/mL, the AUC(0-inf) came out at 7.98 ng·h/mL, the peak concentration (Cmax) is 3.25 ng/mL and the half-life was 2.29 h. In data set [1] (phase II: Geneva cocktail), the “Cmax, geometric mean (geometric CV)” value is given as 4.03 (36.4%) ng/mL and the “Tmax, median (range)” value is listed as 0.5 (0.5-1.0) h. Also, the “Tmax, median (range)” value in data set [1] (setting [2]) is reported as 1.0 (0.5-1.0) h.

Consider `COc1ccc2nc(S(=O)(=O)Cc3ncc(C)c(OC)c3C)[nH]c2c1` [Omeprazole sulfone, omeprazole sulfone], for which the exposure AUC(0-t) in data set [1] (AUC0-23h, phase II: Geneva cocktail) was found to be 113 ng·h/mL; in data set [1] (AUC0-23h, phase IV: clopidogrel 300 mg pretreatment + full cocktail), 156 ng·h/mL; in data set [1] (AUC0-23h, phase V: gemfibrozil 600 mg b.i.d. 3 days pretreatment + full cocktail), 124 ng·h/mL. Also, the total exposure AUC(0-inf) in data set [1] (phase II: Geneva cocktail) was determined as 111 ng·h/mL; in data set [1] (setting [2]), 154 ng·h/mL; in data set [1] (setting [3]), 122 ng·h/mL. Moreover, the Cmax came to 35.3 ng/mL in data set [1] (phase II: Geneva cocktail), 51.2 ng/mL in data set [1] (setting [2]) and 41.8 ng/mL in data set [1] (setting [3]). Moreover, the Tmax in data set [1] (phase II: Geneva cocktail), in data set [1] (setting [2]) and in data set [1] (setting [3]) was 1.5 h each time. Besides, the half-life in data set [1] (phase II: Geneva cocktail) was 1.9 h; in data set [1] (setting [2]), 1.88 h; in data set [1] (setting [3]) it was 1.64 h.

In the case of `C[C@H]1NC(C)(C)CO[C@]1(O)c1cccc(Cl)c1` [OH-bupropion, hydroxybupropion], in data set [1] (phase II: Geneva cocktail), the “AUC0-23h, geometric mean (geometric CV)” value was 571 (35.3%) ng×h/mL; the “AUC0-∞, geometric mean (geometric CV)” value is reported as 1200 (44.1%) ng×h/mL; the “Cmax, geometric mean (geometric CV)” value is 36.9 (38.6%) ng/mL; the “Tmax, median (range)” value was 3.0 (2.0-4.0) h. Further, the “t1/2, geometric mean (geometric CV)” value in data set [1] (phase II: Geneva cocktail) was 26.1 (40.1%) h. For the same compound, in data set [1] (setting [2]), the “AUC0-23h, geometric mean (geometric CV)” value was 181 (37.6%) ng×h/mL; the “AUC0-∞, geometric mean (geometric CV)” value is listed as 499 (45.3%) ng×h/mL; the “Cmax, geometric mean (geometric CV)” value is 10.3 (39.9%) ng/mL; the “Tmax, median (range)” value was 4.0 (1.5-12.0) h. In data set [1] (setting [2]), the “t1/2, geometric mean (geometric CV)” value is on record as 34.6 (42.9%) h. In data set [1] (setting [3]), the “AUC0-23h, geometric mean (geometric CV)” value is listed as 585 (43.5%) ng×h/mL; the “AUC0-∞, geometric mean (geometric CV)” value is given as 1380 (41.2%) ng×h/mL; the “Cmax, geometric mean (geometric CV)” value is 34.1 (44.6%) ng/mL; the “Tmax, median (range)” value is recorded as 6.0 (1.0-12.0) h. Moreover, in data set [1] (setting [3]), the “t1/2, geometric mean (geometric CV)” value was 29.4 (51.7%) h.

Consider `OCc1ncc2n1-c1ccc(Cl)cc1C(c1ccccc1F)=NC2` [1’-OH-midazolam, 1′‐hydroxymidazolam], for which, in data set [1] (phase II: Geneva cocktail), the “AUC0-23h, geometric mean (geometric CV)” value is 3.54 (37.4%) ng×h/mL; the “AUC0-∞, geometric mean (geometric CV)” value was 3.75 (35.9%) ng×h/mL; the “Cmax, geometric mean (geometric CV)” value is given as 1.48 (40.9%) ng/mL; the “Tmax, median (range)” value was 1.0 (0.5-1.0) h. Also, the “t1/2, geometric mean (geometric CV)” value in data set [1] (phase II: Geneva cocktail) is 1.53 (35.6%) h. For the same compound, in data set [1] (setting [2]), the “AUC0-23h, geometric mean (geometric CV)” value is recorded as 5.03 (42.0%) ng×h/mL; the “AUC0-∞, geometric mean (geometric CV)” value was 5.15 (39.8%) ng×h/mL; the “Cmax, geometric mean (geometric CV)” value is recorded as 2.14 (42.5%) ng/mL; the “Tmax, median (range)” value is on record as 1.0 (0.5-1.0) h. Further, the “t1/2, geometric mean (geometric CV)” value in data set [1] (setting [2]) is listed as 1.46 (26.6%) h. In data set [1] (setting [3]), the “AUC0-23h, geometric mean (geometric CV)” value was 7.33 (41.1%) ng×h/mL; the “AUC0-∞, geometric mean (geometric CV)” value was 7.65 (36.6%) ng×h/mL; the “Cmax, geometric mean (geometric CV)” value is given as 2.83 (38.7%) ng/mL; the “Tmax, median (range)” value is listed as 1.0 (0.5-1.5) h. For the same compound, in data set [1] (setting [3]), the “t1/2, geometric mean (geometric CV)” value is given as 1.85 (28.8%) h.

For the compound `CC(C(=O)O)c1ccc(-c2ccccc2)c(F)c1` (stereo not drawn) [Flurbiprofen, flurbiprofen], in the data set “clinical” (phase II: Geneva cocktail), the AUC(0-t) was 5550 ng·h/mL, the AUC(0-inf) was determined as 5910 ng·h/mL, the peak level (Cmax) was 1090 ng/mL and the half-life was 4.82 h. Besides, in “clinical” (setting [2]), the area under the curve AUC(0-t) is 5720 ng·h/mL, the area under the curve AUC(0-inf) came to 5940 ng·h/mL, the maximum concentration (Cmax) amounted to 1180 ng/mL and the time to peak (Tmax) was 1.5 h. For the same compound, the half-life in the data set “clinical” (setting [2]) is 4.35 h. Further, in “clinical” (setting [3]), the area under the curve AUC(0-t) is 5770 ng·h/mL, the area under the curve AUC(0-inf) stood at 6080 ng·h/mL, the Cmax was 1110 ng/mL and the time of peak concentration (Tmax) is 1.5 h. The half-life in “clinical” (setting [3]) is 4.61 h.

For the compound `CC(C(=O)O)c1ccc(-c2ccc(O)cc2)c(F)c1` (stereo not drawn) [4’-OH-flurbiprofen, 4′‐hydroxyflurbiprofen], in the data set “clinical” (phase II: Geneva cocktail), the AUC(0-t) turned out to be 224 ng·h/mL, the total exposure AUC(0-inf) was determined as 263 ng·h/mL, the concentration peaked (Cmax) at 46.4 ng/mL and the Tmax came to 1.8 h. For the same compound, the half-life in “clinical” (phase II: Geneva cocktail) is 3.44 h.

For `CC(NC(C)(C)C)C(=O)c1cccc(Cl)c1` (stereo not drawn) [Bupropion, bupropion], in “clinical” (phase II: Geneva cocktail), the AUC(0-t) was 76.5 ng·h/mL, the area under the curve AUC(0-inf) came out at 84.7 ng·h/mL, the highest concentration (Cmax) amounted to 20 ng/mL and the half-life was 7.89 h.

The values are drawn from PMC12087695, “A Phenotyping Tool for Seven Cytochrome P450 Enzymes and Two Transporters: Application to Examine the Effects of Clopidogrel and Gemfibrozil” (Clinical Pharmacology and Therapeutics, 2025).
